Source: patent publication US10588892B2, “Pharmaceutical composition comprising sacubitril and valsartan” (priority 2017, dated 2020)

Assay: Stability of polymorphic forms towards relative humidity
Assay type: physicochemical
Settings: for stability at low relative humidity: relative humidity below 40%, temperatures between 15 and 30° C.
Description: Changes in humidity have less impact on the valsartan disodium form 2 as compared to the prior art form 1. […] By using valsartan disodium form 2 and by preparing the composition in an environment with relative humidity below 40%, at temperatures between 15 and 30° C., formation of the co-crystal is completely avoided. Any polymorphic form of sacubitril sodium can be used in accordance with the present invention. Preferably, the polymorphic form of sacubitril sodium is, like valsartan disodium form 2, very stable at relative humidity below […], at temperatures between 15 and 30° C. Particularly preferred polymorphic forms of sacubitril sodium to be used in a composition comprising a physical mixture with valsartan disodium form 2 are sacubitril sodium form 1 and form 2. Sacubitril sodium form 1 has an X-ray powder diffraction pattern comprising characteristic peaks at the following 2 theta (±0.2) angles: 3.14°, 6.25°, 11.97°, 12.73°, 13.78°, 16.50°, 18.35°, 19.93°, 21.56°, 23.75°, 26.20°, measured using a Cu Kα radiation. Sacubitril sodium form 2 has an X-ray powder diffraction pattern comprising characteristic peaks at the following 2 theta (±0.2) angles: 5.26°, 10.52°, 10.92°, 14.78°, 16.96°, 17.17°, 17.51°, 19.92°, 20.40°, 20.81°, 22.23°, measured using a Cu Kα radiation. […] The most preferred polymorphic form of sacubitril sodium to be used with valsartan disodium form 2 in a composition in accordance with the present invention is form 1.

CCCCC(=O)N(Cc1ccc(-c2ccccc2-c2nnn[nH]2)cc1)[C@H](C(=O)O)C(C)C [valsartan disodium form 2, valsartan disodium]
impact of changes in humidity compared with prior art form 1: less impact
stability compared with prior art form 1 (example 11 of WO2002006253): more stable
stability at low relative humidity: particularly stable

CCOC(=O)[C@H](C)C[C@@H](Cc1ccc(-c2ccccc2)cc1)NC(=O)CCC(=O)O [Sacubitril sodium form 1, sacubitril sodium]
stability at low relative humidity: stable compounds
